These results are taken from patent publication US20240123080A1, “CYTOTOXIC COMPOUNDS AND CONJUGATES THEREOF” (Seagen Inc., priority 2022, published 2024).

In data set [1] the test system is HCC2218. Description: In vitro cytotoxicity of auristatin ADCs and free drugs (CellTiter-Glo, 96 h). Type of data set: cell-based. To be noted: ADC, Table 8. How it is done: (§1) Cancer cells were counted and plated in 40 μL complete growth media in 384-well, white-walled tissue culture treated plates (Corning). Cell plates were incubated at 37° C. and with 5% CO2 overnight to allow the cells to equilibrate. Stock solutions containing ADCs or free drugs were serially diluted in RPMI-1640+20% fetal bovine serum (FBS). 10 μL of each concentration were then added to each cell plate in duplicate. Cells were then incubated at 37° C. and with 5% CO2 for 96 hours, upon which, the cell plates were removed from the incubator and allowed to cool to room temperature for 30 minutes prior to analysis. CellTiter-Glo® luminescent assay reagent (Promega Corporation, Madison, WI) was prepared according to Promega's protocol. 10 μL of CellTiter-Glo® were added to assay plates using a Formulatrix Tempest liquid handler (Formulatrix) and the plates were protected from light for 30 minutes at room temperature. The luminescence of the samples was measured using an EnVision Multimode plate reader (Perkin Elmer, Waltham, MA). Raw data were analyzed in Graphpad Prism (San Diego, CA) using a nonlinear, 4-parameter curve fit model [Y=Bottom+(Top-Bottom)/(1+10^((LogEC50−X)*HillSlope))]. Results are reported as IC50 values, which are defined as the concentration of ADC or free drug required to reduce cell viability to 50%.
(Cellular ATP, detected with luciferase, serves as a proxy for viable cell number.)

Data set [2] has as its system SKBR3. The data set is described as above. Type of data set: cell-based. The conditions noted are these: ADC, Table 8. How it is done:
as §1

Data set [3] deals with WM2664. Described as above. Format: cell-based. The conditions noted are these: ADC, Table 8. As for the experimental part:
as §1

For data set [4], the system named is SKMEL5. Described as above. Type of data set: cell-based. To be noted: ADC, 96 h. As for the experimental part: as §1
In data set [5] the test system is A2058. The description is as above. Type of data set: cell-based. To be noted: ADC, 96 h. As for the experimental part: as §1
Data set [6] relates to SKMEL28. The description is as above. Format: cell-based. To be noted: ADC; Table 9; 96 h. As for the experimental part: as §1
Data set [7] concerns CALU1. The description is as above. Type of data set: cell-based. The conditions noted are these: ADC, 96 h. As for the experimental part: as §1
The test system of data set [8] is cynomolgus monkeys. The experiment in a line: In vivo safety study of hCR011 ADCs, hematology and clinical chemistry (Example 97). To be noted: 3 mg/kg, four weekly i.v. doses, DAR=4. On the set-up: species or system cynomolgus monkey. As for the experimental part:
In vivo safety studies were done in naive cynomolgus monkeys. Studies had 1 or 2 animals/group/timepoint of hCR011-MC-VC-MMAE (DAR=4) or hCR011-Example 60 (DAR=4). Animals were administered four weekly doses of 3, 5, or 10 mg/kg of ADC via intravenous (slow bolus) injection. Baseline measurements for hematology and clinical chemistry parameters were taken from blood drawn at one or two time points prior to dosing, and post-dose timepoints were collected at day 8, and also on days 15 and 29 (hematology only).

For data set [9], the system named is cynomolgus monkeys. The experiment in a line: In vivo toxicology study of hCR011 ADCs at 5 mg/kg (Example 98). On the set-up: species or system cynomolgus monkey. The conditions noted are these: DAR=4. How it is done: In vivo toxicology studies were done in naive cynomolgus monkeys. Studies had 2 animals/group/timepoint of hCR011-MC-VC-MMAE (DAR=4) or hCR011-Example 60 (DAR=4). Animals were administered four weekly doses of 5 mg/kg of ADC via intravenous (slow bolus) injection.

Some results are limits rather than exact numbers.

On to “hCR011-MC-VC-MMAE: "conjugate hCR011-MC-VC-MMAE" "(DAR=4)" [reference compound]”, for which the “IC50, HCC2218” value in data set [1] is recorded as above 30K. In data set [2], the “IC50, SKBR3” value was 2.69 µg/mL. In [3], the “IC50, WM2664” value came to 4.468 µg/mL. Besides, the results for the “IC50, SKMEL5” value in data set [4] (Table 8) and in data set [4] (Table 9) were 0.916 µg/mL and 0.668 µg/mL, respectively. Besides, the results for the “IC50, A2058” value in data set [5] (Table 8) and in data set [5] (Table 9) were 24.3 µg/mL and 11.118 µg/mL, respectively. Besides, in data set [6], the “IC50, SKMEL28” value is 14.02 µg/mL. Besides, the “IC50, CALU1” value is listed as above 30K in [7] (Table 8) and 14251 ng/mL in [7] (Table 9). In addition, the “neutrophil counts post-administration, FIG. 17” value in data set [8] is “a decrease relative to baseline on days 8, 15, and 29”. The “neutrophil counts post-dose on Day 8, FIG. 21” value in data set [9] is “a decrease relative to baseline”.
